The numbers were not newly measured in patent US10463045B2, “Agrochemical composition” (Nippon Soda Co., Ltd., priority 2015, dated 2019), which cites them from elsewhere.

Values after ≈ are worked out from the molar mass of the structure shown. Where two headings read alike, the source gives them in different places.

As to “5-butyl-2-dimethylamino-6-methylpyridin-4-ol [dimethirimol]”, the solubility in water (25° C.) is recorded as 1,200 mg/l. Regarding `ClC=CCCl` [D-D, 1,3-dichloropropene], the solubility in water is, setting by setting: (E form, 20° C.) 2,520 mg/l; (Z form, 20° C.) 2,450 mg/l. As for `CC(C)N1C(=O)c2ccccc2NS1(=O)=O` [bentazon, 3-isopropyl-1H-2,1,3-benzothiadiazin-4(3H)-one-2,2-dioxide], the solubility in water (20° C.) is 570 mg/L (≈ 2370 µM). Turning to `CN(CC[C@H](N)CC(=O)N[C@H]1C=C[C@H](n2ccc(N)nc2=O)O[C@@H]1C(=O)O)C(=N)N` [blasticidin S, 1-(4-amino-1,2-dihydro-2-oxopyrimidin-1-yl)-4-[(S)-3-amino-5-(1-methyl-guanidino)valeramido]-1,2,3,4,-tetradioxy-β-D-erythrohexy-2-enopyranuronic acid], the solubility in water (20° C.) is on record as 30,000 mg/l. Turning to `CC(C1CC1)C(O)(Cn1cncn1)c1ccc(Cl)cc1` (stereo not drawn) [cyproconazole, 2-(4-chlorophenyl)-3-cyclopropyl-1-(1H-1,2,4-triazol-1-yl) butan-2-ol], under “pH 6.9”, the solubility in water is 100 mg/L (≈ 343 µM). With `CN1CSC(=S)N(C)C1` [dazomet, 3,5-dimethyl-tetrahydro-2H-1,3,5-thiadiazine-2-thione], the solubility in water (20° C.) was 3,500 mg/l.

On to `N#CCNC(=O)c1cnccc1C(F)(F)F` [flonicamid], for which the solubility in water (20° C.) was 5,200 mg/l. Turning to `CNC(=O)ON=C(C)SC` [methomyl, S-methyl-N-(methylcarbamoyloxy) thioacetimidate], under “20° C., pH 7”, the solubility in water is on record as 46,000 mg/l.
